In patent publication US20040018500A1, “Methods and systems for analyzing complex biological systems” (priority 2001, published 2004):

Test system: Saccharomyces cerevisiae wild type strain BY4743
Assay: AF1 metabolite analysis (GC-MS, LC-MS) of yeast treated with antifungal drugs
Assay type: cell-based
Settings: for # Compounds perturbed: yeast, 2×MIC, two hours

SMILES: C[C@@H]1[C@H](O)[C@@H](C)/C=C/C=C/C=C/C=C/C=C/C=C/C=C/[C@H](O[C@@H]2O[C@H](C)[C@@H](O)[C@H](N)[C@@H]2O)C[C@@H]2O[C@](O)(C[C@@H](O)C[C@@H](O)[C@H](O)CC[C@@H](O)C[C@@H](O)CC(=O)O[C@H]1C)C[C@H](O)[C@H]2C(=O)O [Amphoteracin B]
- Fold Change of TMS mevalonic acid lactone (GC): −0.9767
- Fold Change of alanine (GC): −0.7773
- Fold Change of asparagine (GC): −1
- Fold Change of aspartic acid (GC): −0.9743
- Fold Change of campesterol (GC): 0
- Fold Change of desmosterol (GC): 0
- Fold Change of disaccaride1 (GC): −1
- Fold Change of disaccaride2 (GC): −0.9977
- Fold Change of disaccaride3 (GC): −0.9977
- Fold Change of ergosterol (GC): 2.303
- Fold Change of fucosterol (GC): −0.6553
- Fold Change of glutamine (GC): −0.9116
- Fold Change of glycanopyrose (GC): −0.958
- Fold Change of glycerol (GC): −0.815
- Fold Change of glycine (GC): 0.8807
- Fold Change of hexadecanoic acid (GC): −0.2427
- Fold Change of iso citric acid (GC): −0.6183
- Fold Change of isoleucine (GC): −0.9533
- Fold Change of lanosterol (GC): −1
- Fold Change of leucine (GC): −0.9443
- Fold Change of lysine (GC): −0.3925
- Fold Change of malic acid (GC): −0.963
- Fold Change of mevalonic acid lactone (GC): −0.1276
- Fold Change of octadecanoic acid (GC): 0.21
- Fold Change of oleic acid (GC): −0.4593
- Fold Change of ornithine2 (GC): −1
- Fold Change of ornithine3 (GC): −0.9853
- Fold Change of palmiteliadic acid (GC): 0.515
- Fold Change of phenylalanine (GC): −0.9797
- Fold Change of phosphate (GC): −0.007333
- Fold Change of pyrimidine (GC): −0.185
- Fold Change of squalene (GC): −0.5745
- Fold Change of tetradecanoic acid (GC): 0.07967
- Fold Change of threonine2 (GC): −0.8553
- Fold Change of threonine3 (GC): −0.8933
- Fold Change of tms glutamine3 (GC): −0.8935
- Fold Change of tms lysine4 (GC): −0.9783
- Fold Change of tms tyrosine2 (GC): −0.3593
- Fold Change of tms tyrosine3 (GC): −0.9473
- Fold Change of valine (GC): −0.8673
- Fold Change of abscisic acid (LC): 0
- Fold Change of adenosine (LC): 0
- Fold Change of glutamine/lysine (LC): 0.3981
- Fold Change of guanosine (LC): 0.7598
- Fold Change of riboflavin (LC): 0
- Fold Change of serine (LC): 0.2011
- Fold Change of tyrosine (LC): 0.2347
- # Compounds perturbed (P < 0.05): 16
- # Compounds perturbed (P < 0.1): 21
- Fold Change of 2-ketobutyric acid (nLC): −0.9992
- Fold Change of 2-ketoglutaric (nLC): 8.791
- Fold Change of 3-indolylacetonitri (nLC): −0.9998
- Fold Change of 4-methylcatechol (nLC): 0
- Fold Change of 4aminobutyrate/dimg (nLC): −0.1983
- Fold Change of 5hydroxyLtryptophan (nLC): 0
- Fold Change of 6-benzylaminopurine (nLC): 0
- Fold Change of DLaminoadipic acid (nLC): 1.411
- Fold Change of NacetylDglucosamine (nLC): 0
- Fold Change of NacetylLglutamate (nLC): −0.1078
- Fold Change of NacetylLornithine (nLC): 0
- Fold Change of abscisic acid (nLC): 0
- Fold Change of aconitic acid (nLC): 0.5426
- Fold Change of adenine (nLC): 0
- Fold Change of adenosine (nLC): 0
- Fold Change of alanine (nLC): 0.1599
- Fold Change of allantoic acid (nLC): −0.1456
- Fold Change of allantoin (nLC): 3.97
- Fold Change of anthranilic acid (nLC): 0
- Fold Change of arginine (nLC): −0.4885
- Fold Change of argininosuccinate (nLC): 0
- Fold Change of asparagine (nLC): 0.1511
- Fold Change of aspartic (nLC): 0.2407
- Fold Change of benzoic acid (nLC): 0
- Fold Change of biotin (nLC): 1.077
- Fold Change of caffeic acid (nLC): −0.5882
- Fold Change of catechol (nLC): 0
- Fold Change of cinnamic acid (nLC): 0
- Fold Change of citricanoic/itaconi (nLC): 0
- Fold Change of citrulline (nLC): 1659
- Fold Change of coumaric acid (nLC): 0
- Fold Change of cytidine (nLC): −0.9986
- Fold Change of cytosine (nLC): 0
- Fold Change of decanoic acid (nLC): −0.08716
- Fold Change of diaminopimelic acid (nLC): 0
- Fold Change of dihydrofolic acid (nLC): 0
- Fold Change of estrone (nLC): 0
- Fold Change of farnesol (nLC): 0
- Fold Change of folic acid (nLC): 0
- Fold Change of fumaric/3m2oxobutan (nLC): 0.4423
- Fold Change of gallic acid (nLC): 0.1622
- Fold Change of gibberellic (nLC): 0
- Fold Change of giutamine/lysine (nLC): 0.07919
- Fold Change of glucosamine6PO4 (nLC): −0.9951
- Fold Change of glutamic/acetylseri (nLC): 0.1414
- Fold Change of guanine (nLC): 0
- Fold Change of guanosine (nLC): 1.131
- Fold Change of histidine (nLC): 0
- Fold Change of homogentisic/uric (nLC): 0
- Fold Change of hydrocortisone (nLC): 0
- Fold Change of hypoxanthine (nLC): 0.1655
- Fold Change of indole3pyruvic acid (nLC): 0
- Fold Change of inostol/glucos/sorb (nLC): −0.5905
- Fold Change of isocitric/citric/qu (nLC): 2.549
- Fold Change of jasmonic acid (nLC): 0
- Fold Change of kinetin (nLC): 0
- Fold Change of lactic acid (nLC): −0.02583
- Fold Change of lauric acid (nLC): 0.1225
- Fold Change of leucine/isoleucine/ (nLC): 0.1319
- Fold Change of luteolin (nLC): 0
- Fold Change of malic acid (nLC): 0.6212
- Fold Change of malonic acid (nLC): 0
- Fold Change of menthol* (nLC): −0.07013
- Fold Change of methionine (nLC): 0
- Fold Change of nopaline (nLC): 0.3342
- Fold Change of oleic acid (nLC): 0.689
- Fold Change of ornithine (nLC): 2.534
- Fold Change of orotic acid (nLC): 8380
- Fold Change of palmitic acid (nLC): 0.3979
- Fold Change of phenylalanine (nLC): −0.1906
- Fold Change of phenylpyruvic acid (nLC): 0
- Fold Change of phosphoenolpyruvate (nLC): 0
- Fold Change of pinitol (nLC): 0
- Fold Change of pipecolic acid (nLC): 0.08112
- Fold Change of porphobilinogen (nLC): 0
- Fold Change of proline (nLC): 0.4603
- Fold Change of pyridoxine (nLC): −0.1294
- Fold Change of retinoic acid (nLC): 0
- Fold Change of salicylic/HObenzoic (nLC): 0
- Fold Change of selenoOLmethionine (nLC): 0.8515
- Fold Change of serine (nLC): 0.1091
- Fold Change of shikimic acid (nLC): 0
- Fold Change of sinapinic acid (nLC): 0
- Fold Change of sorbitol/mannitol (nLC): 0.2162
- Fold Change of succinic (nLC): 0.8663
- Fold Change of sucrose (nLC): 0.4493
- Fold Change of sugar-phosphate (nLC): −0.1067
- Fold Change of tetradecanoic acid (nLC): −0.07723
- Fold Change of threonine/homoserin (nLC): 0.1267
- Fold Change of thymine (nLC): 0
- Fold Change of tryptophan (nLC): 1.142
- Fold Change of tyrosine (nLC): 0.0982
- Fold Change of uracil (nLC): 1.511
- Fold Change of uridine (nLC): 0.1126
- Fold Change of urocanic acid (nLC): 0
- Fold Change of valine (nLC): 0.1624
- Fold Change of xanthosineDiH2O (nLC): 0
- Fold Change of zeatin (nLC): 0
- Fold Change of 4-aminobenzoic acid (pLC): 0
- Fold Change of 4-methylcatechol (pLC): 0
- Fold Change of 4ambutyrate/dimglyc (pLC): 0.01279
- Fold Change of 5hydroxyLtryptophan (pLC): 0
- Fold Change of 6benzylaminopurine (pLC): 0
- Fold Change of DL-aminoadipic acid (pLC): 0.4703
- Fold Change of NacetylDglucosamine (pLC): 0
- Fold Change of NacetylLglutamate (pLC): 0
- Fold Change of NacetylLornithine (pLC): 1.319
- Fold Change of adenine (pLC): 0.1153
- Fold Change of alanine/sarcosine (pLC): 0.2602
- Fold Change of allantoic acid (pLC): 0
- Fold Change of anthranilic acid (pLC): 0
- Fold Change of arginine (pLC): 0.4662
- Fold Change of argininosuccinate (pLC): 0
- Fold Change of asparagine (pLC): 0.6344
- Fold Change of aspartic acid (pLC): 0.3594
- Fold Change of biotin (pLC): 0
- Fold Change of caffeine (pLC): 0
- Fold Change of citric acid TME (pLC): 0
- Fold Change of citrulline (pLC): 1.798
- Fold Change of cytidine (pLC): 0
- Fold Change of cytosine (pLC): 0
- Fold Change of diaminopimelic acid (pLC): 0
- Fold Change of dihydrofolic acid (pLC): 0
- Fold Change of dipicolinic acid (pLC): 0
- Fold Change of folic acid (pLC): 0
- Fold Change of glucosamine (pLC): 0
- Fold Change of glucosamine6PO4 (pLC): 0
- Fold Change of glutamate (pLC): 0.4341
- Fold Change of glutathione (pLC): −0.03348
- Fold Change of histidine (pLC): 0
- Fold Change of hydrocortisone (pLC): 0
- Fold Change of hypoxanthine (pLC): 0.2057
- Fold Change of itaconic acid dimes (pLC): 0
- Fold Change of kinetin (pLC): 0
- Fold Change of leucine/isoleucine/ (pLC): 0.2746
- Fold Change of luteolin (pLC): 0
- Fold Change of mannitol (pLC): 0.4543
- Fold Change of methionine (pLC): 0.3299
- Fold Change of mevalonic lactone (pLC): −0.4606
- Fold Change of niacinamide (pLC): 0
- Fold Change of nicotinic acid (pLC): −0.9989
- Fold Change of nopaline (pLC): 0
- Fold Change of ornithine (pLC): 0.5049
- Fold Change of phenylalanine (pLC): 0.4036
- Fold Change of phosphoenolpyruvate (pLC): 0
- Fold Change of pipecolic acid (pLC): 0.5237
- Fold Change of progesterone (pLC): 0
- Fold Change of proline (pLC): 0.6707
- Fold Change of pyridoxine (pLC): −0.1684
- Fold Change of selenoDLmethionine (pLC): 1.178
- Fold Change of sugar-phosphate (pLC): 0
- Fold Change of thiamine (pLC): 0
- Fold Change of threonine/homoserin (pLC): 0.3145
- Fold Change of thymine (pLC): 0
- Fold Change of tryptophan (pLC): 0
- Fold Change of uric acid (pLC): 308
- Fold Change of urocanic acid (pLC): 0
- Fold Change of xanthosine(diH2O) (pLC): 0
- Fold Change of zeatin (pLC): 0
